Residues, ends and D or L forms follow the SMILES beside them.
Columns and labels:
recombinant human Ang1 = molecular target: T1, recombinant human Ang1 (Homo sapiens, UniProt Q15389); experiment: BIACORE (SPR) binding of peptides to immobilized recombinant Ang1; conditions: CM5 chip, 10-50 μM peptide
T1 construct: purchased R&D Systems 923-AN-025/CF
T1 sequence (Q15389 16-498): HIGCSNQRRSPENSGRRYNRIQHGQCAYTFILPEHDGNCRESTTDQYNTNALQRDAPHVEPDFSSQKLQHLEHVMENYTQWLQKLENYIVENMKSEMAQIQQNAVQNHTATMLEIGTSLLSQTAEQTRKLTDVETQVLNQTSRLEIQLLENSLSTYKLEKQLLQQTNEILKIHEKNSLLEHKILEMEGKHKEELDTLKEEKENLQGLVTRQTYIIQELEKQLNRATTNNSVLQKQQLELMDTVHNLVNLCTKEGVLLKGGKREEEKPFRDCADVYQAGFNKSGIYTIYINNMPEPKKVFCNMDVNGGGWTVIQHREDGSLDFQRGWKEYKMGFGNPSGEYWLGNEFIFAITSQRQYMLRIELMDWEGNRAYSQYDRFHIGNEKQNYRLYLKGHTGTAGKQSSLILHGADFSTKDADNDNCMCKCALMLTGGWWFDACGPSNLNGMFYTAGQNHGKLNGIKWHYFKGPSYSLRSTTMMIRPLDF
Description: (§1) The capability of CGEN-H2 [SEQ ID NO: 1], CGEN-H3 [SEQ ID NO: 2], CGEN-A8 [SEQ ID NO: 3], CGEN-H7 [SEQ ID NO: 4], CGEN-G4 [SEQ ID NO: 5], CGEN-G6 [SEQ ID NO: 6], CGEN-F9 [SEQ ID NO: 7], CGEN-F12 [SEQ ID NO: 8], CGEN-C6-30 [SEQ ID NO: 9], CGEN-All [SEQ ID NO: 10], and CGEN-G2 [SEQ ID NO: 11] to specifically bind to recombinant Ang1, Ang2, and Ang4 was investigated using the BIACORE technology, measuring protein-protein interaction and binding affinity (Wendler et al 2005, Anal Bioanal Chem, 381: 1056-1064). The technology is based on surface plasmon resonance (SPR), an optical phenomenon that enables detection of unlabeled interactants in real time. The SPR-based biosensors can be used in determination of active concentration, screening and characterization in terms of both affinity and kinetics.
(§2) Peptide-protein binding was analyzed using surface plasmon resonance. Analysis of the to interaction between CGEN-H2 [SEQ ID NO: 1], CGEN-H3 [SEQ ID NO: 2], CGEN-A8 [SEQ ID NO: 3], CGEN-H7 [SEQ ID NO: 4], CGEN-G4 [SEQ ID NO: 5], CGEN-G6 [SEQ ID NO: 6], CGEN-F9 [SEQ ID NO: 7], CGEN-F12 [SEQ ID NO: 8], CGEN-C6 [SEQ ID NO: 9], CGEN-A11 [SEQ ID NO: 10], and CGEN-G2 [SEQ ID NO: 11] peptides and recombinant human Ang1 carrier-free (R&D Systems, Cat#923-AN-025/CF, Lot#FHW1507031), human Ang2 carrier-free (R&D Systems, Cat#623-AN-025/CF, Lot#BNO0457121), and human Ang4 carrier-free (R&D Systems, Cat#964-AN-025/CF, Lot#ELM025121) was conducted using the BIAcore biosensor (Pharmacia Biosensor, Uppsala, Sweden). The recombinant Ang1, Ang2, and Ang4 were immobilized directly to a CM5 sensor chip. Solutions containing 10-50 μM of CGEN-H2 [SEQ ID NO: 1], CGEN-H3 [SEQ ID NO: 2], CGEN-A8 [SEQ ID NO: 3], CGEN-H7 [SEQ ID NO: 4], CGEN-G4 [SEQ ID NO: 5], CGEN-G6 [SEQ ID NO: 6], CGEN-F9 [SEQ ID NO: 7], CGEN-F12 [SEQ ID NO: 8], CGEN-C6 [SEQ ID NO: 9], CGEN-A11 [SEQ ID NO: 10], and CGEN-G2 [SEQ ID NO: 11] peptides were injected into the sample chamber of the BIACORE device at a rate of […] and the interaction was monitored using surface plasmon resonance.
(§3) Solutions containing different concentrations of CGEN-G6 [SEQ ID NO: 6], CGEN-F9 [SEQ ID NO: 7], CGEN-F12 [SEQ ID NO: 8], CGEN-A11 [SEQ ID NO: 10], and CGEN-G2 [SEQ ID NO: 11] peptides (as indicated in Table 2) were injected into the sample chamber of the BIACORE device at a rate of […] and the interaction was monitored using surface plasmon resonance. As a background, the solutions were also injected onto an empty flow cell with no immobilized ligand and the in binding levels achieved were subtracted. Data was analyzed using BIAevaluation software. The affinity constant of the interaction between CGEN-G6 [SEQ ID NO: 6], CGEN-F9 [SEQ ID NO: 7], CGEN-F12 [SEQ ID NO: 8], CGEN-C6 [SEQ ID NO: 9], CGEN-A11 [SEQ ID NO: 10], and CGEN-G2 [SEQ ID NO: 11] and Ang1, Ang2, or Ang4 was determined by direct kinetic analysis. The 1:1 Langmuir binding model was used to fit kinetic data.
(§4) Table 2 summarizes results of analysis of CGEN-G6 [SEQ ID NO: 6], CGEN-F9 [SEQ ID NO: 7], CGEN-F12 [SEQ ID NO: 8], CGEN-A11 [SEQ ID NO: 10], and CGEN-G2 [SEQ ID NO: 11] interaction with Ang1, Ang2, or Ang4. Kinetic measurements were done at the indicated concentration range, and they are presented as KD (M). CGEN-F12 [SEQ ID NO: 8] bound to Ang1 and Ang4 with high affinity. The specificity of this binding is not clear.

human Ang2 = molecular target: T2, human Ang2 (Homo sapiens, UniProt O15123); experiment: BIACORE (SPR) binding of peptides to immobilized recombinant Ang2; conditions: CM5 chip, 10-50 μM peptide
T2 construct: purchased R&D Systems 623-AN-025/CF
T2 sequence (O15123 19-496): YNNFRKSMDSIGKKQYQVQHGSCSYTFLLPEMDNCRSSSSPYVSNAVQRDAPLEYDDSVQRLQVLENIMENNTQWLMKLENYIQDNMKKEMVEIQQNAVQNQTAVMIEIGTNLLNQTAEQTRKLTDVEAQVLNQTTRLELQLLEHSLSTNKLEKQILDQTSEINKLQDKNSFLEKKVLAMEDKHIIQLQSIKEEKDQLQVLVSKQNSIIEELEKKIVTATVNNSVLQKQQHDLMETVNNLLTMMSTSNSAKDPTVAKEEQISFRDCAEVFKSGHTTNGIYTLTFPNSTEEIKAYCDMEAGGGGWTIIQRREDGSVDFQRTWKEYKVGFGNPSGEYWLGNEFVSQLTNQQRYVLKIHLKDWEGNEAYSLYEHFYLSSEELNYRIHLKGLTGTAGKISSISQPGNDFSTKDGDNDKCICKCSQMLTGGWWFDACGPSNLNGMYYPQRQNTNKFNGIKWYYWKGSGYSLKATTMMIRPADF
Description: as §1, §2, §3, §4

binding to immobilized Ang1 (in words) (recombinant human Ang1) | binding to immobilized Ang2 (in words) (human Ang2) | SMILES
capable of binding | capable of binding | CC(=O)N[C@@H](CCC(=O)O)C(=O)N[C@H](C(=O)N[C@@H](Cc1ccccc1)C(=O)N[C@@H](CC(C)C)C(=O)N[C@@H](CO)C(=O)N[C@H](C(=O)N[C@@H](CC(N)=O)C(=O)N[C@@H](CCCCN)C(=O)N[C@@H](CC(C)C)C(=O)N[C@@H](CCC(=O)O)C(=O)N[C@@H](CC(N)=O)C(=O)N[C@@H](CCC(N)=O)C(N)=O)[C@@H](C)O)[C@@H](C)O [CGEN-A11, ETFLSTNKLENQ] (Ac-ETFLSTNKLENQ-NH2)
capable of binding | capable of binding | CC[C@H](C)[C@H](NC(=O)[C@H](C)NC(=O)[C@H](CCCNC(=N)N)NC(=O)[C@H](CCC(=O)O)NC(=O)[C@H](CC(C)C)NC(=O)[C@H](CCCCN)NC(=O)[C@H](CCCCN)NC(=O)[C@H](CC(C)C)NC(=O)[C@H](Cc1c[nH]c2ccccc12)NC(=O)[C@H](CCC(N)=O)NC(=O)[C@@H](NC(=O)[C@H](CC(N)=O)NC(=O)[C@H](CC(N)=O)NC(=O)[C@H](CCC(N)=O)NC(=O)[C@H](CC(C)C)NC(=O)[C@H](C)NC(=O)[C@H](CCC(N)=O)NC(=O)[C@H](CCC(=O)O)NC(=O)[C@H](CC(C)C)NC(=O)[C@H](CCC(N)=O)NC(=O)[C@H](CCCCN)NC(=O)[C@@H](NC(=O)[C@H](CCC(N)=O)NC(=O)[C@H](CCC(N)=O)NC(=O)[C@@H](NC(C)=O)[C@@H](C)O)C(C)C)[C@@H](C)O)C(=O)N[C@@H](CCCCN)C(=O)N[C@H](C(=O)N[C@H](C(=O)N[C@@H](CC(C)C)C(N)=O)[C@@H](C)CC)[C@@H](C)O [CGEN-G2] (Ac-TQQVKQLEQALQNNTQWLKKLERAIKTIL-NH2)
capable of binding | capable of binding | CSCC[C@H](NC(=O)[C@H](CC(C)C)NC(=O)[C@H](CC(=O)O)NC(C)=O)C(=O)N[C@@H](CCC(=O)O)C(=O)N[C@H](C(=O)N[C@H](C(=O)N[C@@H](CC(N)=O)C(=O)N[C@@H](CC(N)=O)C(=O)N[C@@H](CC(C)C)C(=O)N[C@@H](CC(C)C)C(=O)N[C@H](C(=O)N[C@@H](CCSC)C(=O)N[C@@H](CCSC)C(=O)N[C@@H](CO)C(=O)N[C@H](C(=O)N[C@@H](CO)C(=O)N[C@@H](CC(N)=O)C(=O)N[C@@H](CO)C(=O)N[C@@H](C)C(=O)N[C@@H](CCCCN)C(=O)N[C@@H](CC(=O)O)C(N)=O)[C@@H](C)O)[C@@H](C)O)C(C)C)[C@@H](C)O [CGEN-G6] (Ac-DLMETVNNLLTMMSTSNSAKD-NH2)

— patent US9255132B2, “Angiopoietin derived peptides” (Compugen Ltd., priority 2008, dated 2016)
